According to publication PMC12274739, “Differential substrate degradation by super-degron: EGFP in wild-type mouse cells, PD-1 requires CRBN humanization” (iScience, 2025):
Where “and” joins values, the source holds several entries; their conditions need not be identical. Equal values may be shown once. Read-outs that look alike come from different tables or passages of the source.

Assays:
[1] = target: EGFP-SD (Aequorea victoria, UniProt P42212, F64L/H231L/S65T); assay type: cell-based, mouse; settings: stable; for DC50: read-out: DC50, EGFP-SD
[2] = target: PD-1 tagged with SD in the brain (Mus musculus, UniProt Q02242+Q8C7D2); assay: PD-1 expression in brain, western blotting; assay type: in vivo; settings: Pdcd1SD/SD/CrbnI391V/I391V mice
Protocol: Although the growth of GL-261 in the brain was inhibited, it is likely that the BBB was destroyed in cancer growth experiments in which GL-261 was transplanted.[34] Therefore, we conducted an experiment in which IBR was administered without the transplantation of brain tumor cell lines as a model for protein degradation experiments in the brain under normal conditions. […] Thus, this degron system can be used in the brain.
Brain tissue was collected after the mice were deeply anesthetized and perfused with PBS to remove blood. They were immediately frozen in liquid nitrogen and homogenized in Nervous Tissue Protein Extraction buffer (TCI, Tokyo, Japan). After centrifuging the lysate at 20,000 g for 10 min at 4°C, heated at 98°C for 3 min with NuPAGE Sample Reducing Agent (Thermo Fisher Scientific) and NuPAGE LDS Sample buffer (Thermo Fisher Scientific), the supernatant was used for SDS-PAGE. SDS-PAGE was performed using a 5–12% polyacrylamide gel (FUJIFILM Wako) and NuPAGE MOPS SDS running buffer (Thermo Fisher Scientific) for 1 h, 120 V. One microgram of protein was loaded in each lane. […] After three washes with PBST, the secondary antibodies were detected using ImmunoStar (FUJIFILM Wako) and LAS 3000 (FUJIFILM). […]

[3] = tested on: mouse PD-1-mCherry-super degron (SD) tag; assay: Degradation of SD-tagged mouse PD-1-mCherry in Jurkat cells, flow cytometry 24 h; assay type: cell-based, human; settings: for Bottom, mCherry (mC): no reagent = 1; for Bottom, PD-1 (FITC): surface PD-1, no reagent = 1
Text: To identify a tag that could efficiently knock down mouse PD-1, we connected various degron tags to the C-terminus of PD-1, including IKZF1/3, Sall4, ZFP91, and SD, and generated Jurkat human T cell lymphoma cell lines that stably expressed the mouse PD-1-degron tag (Figure 1A). […] Therefore, a human cell line was used because it was thought that mouse CRBN would not degrade SD by thalidomide analogs. […] We also analyzed the degradation of total proteins using mCherry.
(C and D) The amount was standardized with the sample to which no reagent was added as 1. Concentrations of reagents were 0 (−), 5, 10, and 20 μM for IKZF minimal, IKZF full-length, and Sall4 tags and 0 (−), 0.5, 5 μM for SD tag. The dots indicate the results of the experiment for each of samples.

[4] = target: EGFP-IKZF (UniProt P42212+Q8C7D2, F64L/H231L/INS1V/S65T); assay type: cell-based, mouse; settings: read-out: DC50, EGFP-IKZF, stable
[5] = target: endogenous PD-1 tagged with SD (Mus musculus, UniProt Q02242+Q8C7D2); assay: Endogenous PD-1-SD on concanavalin A-stimulated spleen T cells, flow cytometry; assay type: cell-based; settings: for percentage of activated T cells characterized by FSC high: Con A-stimulated splenocytes; for PD-1 on CD8+ and CD4+ cells: Con A, 24 h after 1 μM POM or 0.1–1 μM IBR
Protocol: The dotted lines show an isotype control without IBR. […] The dotted lines show an isotype control without IBR. […] The black lines show isotype control without IBR. […] Red lines show the boundary between positive and negative. […] (B–J) IBR or solvent (−) was added to cultured splenocytes (B–G) or mESCs (H–J). […] The concentration is 0.1 μM in the rightmost bar in each group, and the left neighbor is a step dilution of one-tenth. Intensities of anti-PD-1-FITC on CD4^+ and CD8^+ T cells were measured by flow cytometry, and the geometric means of fluorescence intensities (MFI) were calculated. The MFI of the isotype control of anti-PD-1-FITC was subtracted from each MFI of anti-PD-1-FITC. The dots indicate the results of the experiment for each of the three samples from different individuals.
Pdcd1^SD/SD/Crbn^I391V/I391V spleen-derived T cells were stimulated in vitro with concanavalin A (Con A) followed by treatment with thalidomide analogs to examine PD-1 expression (Figures 6B–6D and S6A–S6C).
To determine whether the same phenomenon occurs in non-T cells, exogenous PD-1 degradation was examined in mESCs transfected with PD-1-SD expression vectors (Figures 6H–6J and S6E). […] We hypothesized that the degradation efficiency of membrane-localized proteins might be reduced in mouse-type CRBNs. Therefore, we expressed EGFP-SDs with membrane-localized peptides attached to their N-termini in mESCs and added IBR. The degradation efficiency of EGFP-SD with membrane-localization peptide[32] […] Therefore, Pdcd1^SD/SD/Crbn^I391V/I391V mice were used for further analyses.
Splenocytes were harvested after the mice were euthanized. Splenocytes were isolated in RPMI 1640 medium and collected using a 70 μm filter. After treatment with ACT solution to remove red blood cells, splenocyte culture was performed at a density of 2 × 10^6 cells/mL in RPMI 1640 with 10% FBS, Glutamax and penicillin-streptomycin and incubated at 37°C in a 5% CO2 containing atmosphere. To activate T cells, 0.5 μg/mL concanavalin A was added to the medium for 3 days to activate T cells.

[6] = CrbnI391V/I391V mESCs, Figure 5E
[7] = Pdcd1SD/SD/CrbnI391V/I391V T cells

EGFP-IKZF, sequence (Q8C7D2 whole entry, looked up, stated change not applied, other chains not shown): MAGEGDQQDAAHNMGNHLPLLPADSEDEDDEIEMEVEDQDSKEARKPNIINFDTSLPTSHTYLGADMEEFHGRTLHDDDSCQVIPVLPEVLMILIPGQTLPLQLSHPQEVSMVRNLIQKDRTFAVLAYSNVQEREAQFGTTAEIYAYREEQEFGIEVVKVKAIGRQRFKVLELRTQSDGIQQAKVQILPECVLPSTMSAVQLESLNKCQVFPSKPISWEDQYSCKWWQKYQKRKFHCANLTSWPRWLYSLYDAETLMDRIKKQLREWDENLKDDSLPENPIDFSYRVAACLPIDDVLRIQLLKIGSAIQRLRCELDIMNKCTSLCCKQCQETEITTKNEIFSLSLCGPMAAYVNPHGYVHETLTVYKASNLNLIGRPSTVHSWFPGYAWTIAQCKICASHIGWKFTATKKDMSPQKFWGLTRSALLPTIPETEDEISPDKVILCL
endogenous PD-1 tagged with SD, sequence (Q02242 with tags, fused parts or gaps): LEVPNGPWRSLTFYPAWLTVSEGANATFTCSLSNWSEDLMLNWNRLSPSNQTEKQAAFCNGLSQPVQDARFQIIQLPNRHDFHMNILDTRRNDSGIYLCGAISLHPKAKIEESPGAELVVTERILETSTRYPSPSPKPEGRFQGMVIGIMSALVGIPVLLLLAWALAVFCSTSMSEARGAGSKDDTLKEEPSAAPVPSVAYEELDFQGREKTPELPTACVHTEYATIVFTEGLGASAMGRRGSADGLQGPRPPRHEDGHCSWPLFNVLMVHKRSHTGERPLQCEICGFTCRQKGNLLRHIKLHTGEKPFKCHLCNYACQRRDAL
endogenous PD-1 tagged with SD, sequence (Q8C7D2 whole entry): as the sequence (Q8C7D2 whole entry, looked up, stated change not applied, other chains not shown) above
endogenous PD-1 tagged with SD, sequence (Q3U1J4 whole entry partner): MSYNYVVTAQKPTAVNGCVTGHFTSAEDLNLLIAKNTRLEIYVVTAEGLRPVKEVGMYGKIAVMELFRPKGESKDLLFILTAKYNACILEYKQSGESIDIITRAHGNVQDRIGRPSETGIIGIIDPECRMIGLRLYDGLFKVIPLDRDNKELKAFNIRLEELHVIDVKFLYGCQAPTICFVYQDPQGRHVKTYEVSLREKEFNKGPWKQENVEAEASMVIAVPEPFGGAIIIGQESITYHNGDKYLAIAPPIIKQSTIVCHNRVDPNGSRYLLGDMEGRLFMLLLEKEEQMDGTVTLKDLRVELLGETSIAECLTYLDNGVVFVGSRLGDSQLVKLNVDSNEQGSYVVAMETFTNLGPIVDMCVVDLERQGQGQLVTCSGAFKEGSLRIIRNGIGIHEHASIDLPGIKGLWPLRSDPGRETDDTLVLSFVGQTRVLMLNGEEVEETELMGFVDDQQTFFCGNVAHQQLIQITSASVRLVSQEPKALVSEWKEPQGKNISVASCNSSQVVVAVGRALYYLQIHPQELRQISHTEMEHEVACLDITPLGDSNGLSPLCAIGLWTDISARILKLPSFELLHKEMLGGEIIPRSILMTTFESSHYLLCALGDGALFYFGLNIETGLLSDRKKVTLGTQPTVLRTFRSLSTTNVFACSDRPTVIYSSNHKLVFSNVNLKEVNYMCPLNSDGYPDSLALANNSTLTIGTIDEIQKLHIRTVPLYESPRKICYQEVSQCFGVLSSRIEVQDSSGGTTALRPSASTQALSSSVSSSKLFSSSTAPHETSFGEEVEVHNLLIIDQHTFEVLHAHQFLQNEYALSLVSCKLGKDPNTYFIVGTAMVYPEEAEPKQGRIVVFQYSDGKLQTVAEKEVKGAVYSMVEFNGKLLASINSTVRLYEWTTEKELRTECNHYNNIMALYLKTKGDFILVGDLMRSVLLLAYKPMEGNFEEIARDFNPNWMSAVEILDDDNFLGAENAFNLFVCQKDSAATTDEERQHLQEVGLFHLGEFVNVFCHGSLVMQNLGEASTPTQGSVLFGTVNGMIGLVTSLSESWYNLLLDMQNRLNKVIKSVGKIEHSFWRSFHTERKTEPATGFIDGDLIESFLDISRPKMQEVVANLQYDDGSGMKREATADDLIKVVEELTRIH
PD-1 tagged with SD in the brain, sequence (Q02242 with tags, fused parts or gaps): as the sequence (Q02242 with tags, fused parts or gaps) above
PD-1 tagged with SD in the brain, sequence (Q8C7D2 whole entry): as the sequence (Q8C7D2 whole entry, looked up, stated change not applied, other chains not shown) above
PD-1 tagged with SD in the brain, sequence (Q3U1J4 whole entry partner): as the sequence (Q3U1J4 whole entry partner) above

Nc1cccc2c1C(=O)N(C1CCC(=O)NC1=O)C2=O (stereo not shown) [POM, pomalidomide]
Bottom, EGFP-SD ([1]; B6J-S1 mESCs, Figure 5D): 0.01974 | LogDC50, EGFP-SD ([1]; B6J-S1 mESCs, Figure 5D): -2.853 μM | Bottom, EGFP-SD [1, 6]: 0.06229 | LogDC50, EGFP-SD [1, 6]: -2.993 μM | DC50 ([1]; B6J-S1 mESCs, Figure 5D): 1.4 nM | DC50 [1, 6]: 1.02 nM | PD-1 amount in the brain vs vehicle ([2]; 20 mg/kg POM oral, after 24 h): reduced to half the amount | concentration showing the same effect on PD-1-SD [3]: 5 µM | Bottom, mCherry (mC) [3]: 0.2421 | DC50 ([3]; read-out: DC50, PD-1 (FITC), surface PD-1): 148 nM | DC50 ([3]; read-out: DC50, mCherry (mC), mCherry): 234 nM | Bottom, PD-1 (FITC) [3]: 0.11 and 0.1083 | DC50 [4, 6]: 5.11 nM | percentage of activated T cells characterized by FSC high [5]: not affected | PD-1 on CD8+ and CD4+ cells [5, 7]: barely observed

O=C1CC[C@H](N2Cc3c(OCc4ccc(CN5CCOCC5)cc4)cccc3C2=O)C(=O)N1 [IBR, iberdomide]
Bottom, EGFP-SD ([1]; B6J-S1 mESCs, Figure 5B): 0.05422 | LogDC50, EGFP-SD ([1]; B6J-S1 mESCs, Figure 5B): -3.152 μM | Bottom, EGFP-SD ([1]; B6J-S1 mESCs, Figure 5D): 0.02363 | LogDC50, EGFP-SD ([1]; B6J-S1 mESCs, Figure 5D): -3.579 μM | Bottom, EGFP-SD [1, 6]: 0.04851 | LogDC50, EGFP-SD [1, 6]: -4.174 μM | DC50 ([1]; B6J-S1 mESCs, Figure 5B): 0.704 nM | DC50 ([1]; B6J-S1 mESCs, Figure 5D): 0.264 nM | DC50 [1, 6]: 0.067 nM | PD-1 expression in the brain ([2]; IBR 10 mg/kg oral, 24 h): no changes in PD-1 expression in the brain | concentration showing the same effect on PD-1-SD [3]: 0.5 µM | Bottom, mCherry (mC) [3]: 0.2415 | Bottom, PD-1 (FITC) [3]: 0.1258 | DC50 ([4]; B6J-S1 mESCs, Figure 5B): 29.1 nM | DC50 [4, 6]: 0.639 nM | percentage of activated T cells characterized by FSC high [5]: not affected | PD-1 degradation ([5]; Pdcd1SD/SD/Crbn+/+ T cells): barely degraded | PD-1 removal ([5]; Pdcd1SD/SD/CrbnI391V/I391V T cells, 10^−2 μM and 10^−3 μM IBR): mostly removed | PD-1 on CD8+ and CD4+ cells [5, 7]: barely observed
